Measured values from article PMC8124549, “Antidepressants Differentially Regulate Intracellular Signaling from α1-Adrenergic Receptor Subtypes In Vitro” (International Journal of Molecular Sciences, 2021).
Like-named read-outs stand apart in the source and are kept apart here.

Key:
α1A-AR = target: T1, α1A-AR (Homo sapiens, UniProt P35348); test: IP-One HTRF inositol phosphate accumulation, PC12 cells; assay type: cell-based
T1 construct: gene ADRA1A; human receptor from pcDNA3.1+ plasmid, stably expressed in rat PC12 cells
T1 sequence (P35348 1-466): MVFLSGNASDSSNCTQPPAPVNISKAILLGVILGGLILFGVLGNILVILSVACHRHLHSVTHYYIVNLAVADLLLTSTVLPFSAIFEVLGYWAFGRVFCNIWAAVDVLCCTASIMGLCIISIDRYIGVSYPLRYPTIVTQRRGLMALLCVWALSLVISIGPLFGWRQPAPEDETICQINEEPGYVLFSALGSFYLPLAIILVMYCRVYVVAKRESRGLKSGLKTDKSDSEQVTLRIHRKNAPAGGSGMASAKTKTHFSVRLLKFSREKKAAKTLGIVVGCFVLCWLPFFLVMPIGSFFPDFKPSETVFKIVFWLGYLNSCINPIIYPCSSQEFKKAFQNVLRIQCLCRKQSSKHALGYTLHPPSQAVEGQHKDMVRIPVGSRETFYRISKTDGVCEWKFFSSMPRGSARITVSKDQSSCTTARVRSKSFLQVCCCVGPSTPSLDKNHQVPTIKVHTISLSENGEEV

α1B-AR = target: T2, α1B-AR (Homo sapiens, UniProt P35368); test: as above; assay type: cell-based
T2 construct: gene ADRA1B; human receptor from pcDNA3.1+ plasmid, stably expressed in rat PC12 cells
T2 sequence (P35368 1-520): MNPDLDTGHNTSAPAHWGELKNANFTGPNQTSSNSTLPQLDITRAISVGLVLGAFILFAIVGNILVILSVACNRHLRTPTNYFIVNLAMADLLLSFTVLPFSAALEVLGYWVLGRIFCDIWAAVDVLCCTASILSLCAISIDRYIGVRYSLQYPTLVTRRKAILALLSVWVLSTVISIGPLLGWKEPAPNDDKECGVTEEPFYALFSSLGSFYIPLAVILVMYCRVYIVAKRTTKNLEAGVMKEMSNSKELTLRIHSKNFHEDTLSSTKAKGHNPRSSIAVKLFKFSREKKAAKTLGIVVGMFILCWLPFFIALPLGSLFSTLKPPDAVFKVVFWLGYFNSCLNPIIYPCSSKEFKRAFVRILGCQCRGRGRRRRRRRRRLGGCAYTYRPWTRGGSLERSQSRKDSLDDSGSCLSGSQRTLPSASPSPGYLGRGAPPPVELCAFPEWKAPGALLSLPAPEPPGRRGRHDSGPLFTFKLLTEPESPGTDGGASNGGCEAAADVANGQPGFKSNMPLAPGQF

SMILES | IC50 (α1A-AR; antagonism of noradrenaline at EC90, 37 °C, pH 7) | IC50 (α1B-AR) [µM] | IC50 (α1A-AR; read-out: α1A (converted)) [µM]
COc1cccc(OC)c1OCCNCC1COc2ccccc2O1 (stereo not drawn) [WB4101] | 1 × 10^−8.6 M |  | 
CNCCCN1c2ccccc2CCc2ccccc21 [desipramine] |  | 7.94 | 
CN(C)CCCN1c2ccccc2CCc2ccccc21 [imipramine] |  | 8.13 | 0.468

Now from value to compound:

IC50 (α1A-AR; antagonism of noradrenaline at EC90, 37 °C, pH 7) | IC50 (α1B-AR) [µM] | IC50 (α1A-AR; read-out: α1A (converted)) [µM] | SMILES
 | > 100 |  | CN(C)CCCC1(c2ccc(F)cc2)OCc2cc(C#N)ccc21 (stereo not drawn) [citalopram]
 | > 100 |  | CNCCC(Oc1ccc(C(F)(F)F)cc1)c1ccccc1 (stereo not drawn) [fluoxetine]
